Laboratory results published in publication PMC2761990 (Molecular cancer therapeutics, 2009).

Tests used:
[1] = test system: AKT (S473) phosphorylation; experiment: AKT; type: cell-based, human
U1242 cells [2] = experiment: Radiosurvival, Trypan blue/FACS assay, U1242; type: cell-based, human
U87 cells [3] = experiment: Radiosurvival, Trypan blue/FACS assay, U87; type: cell-based, human; settings: U87, 3 μM, 4 Gy, alone
[4] = test system: panel of 60 protein kinases; settings: cited from earlier work
[5] = test system: (S9) GSK3β phosphorylation; type: cell-based; settings: in vivo and in vitro (Fig. S1C, D)
γ-H2AX (S139) = experiment: IR-induced H2AX; type: cell-based, human; settings: for γ-H2AX levels: 10 Gy
[6] = test system: (S136) BAD phosphorylation; type: cell-based; settings: in vivo and in vitro (Fig. S1C, D)
[7] = test system: p53 (S15) phosphorylation; experiment: IR-induced p53; type: cell-based, human; settings: for inhibition of IR-induced p53 (S15) phosphorylation: 1 h after IR
AKT T308 phosphorylation = experiment: Radiation-induced AKT T308 phosphorylation; type: cell-based; settings: Fig. S1B
[8] = test system: AKT (S473) phosphorylation; experiment: AKT; type: cell-based, human; settings: U1242, 3 μM, 5 Gy
PI3K (p110δ/p85α) = PI3K (p110δ/p85α) (Homo sapiens, UniProt O00329); experiment: PI3-Kinase HTRF assay; type: biochemical; settings: read-out: PI3K (p110δ/p85α) inhibited
[9] = test system: h-TERT-immortalized normal fibroblasts; experiment: Radiosurvival, Trypan blue/FACS assay, normal fibroblasts; type: cell-based, human; settings: 10 μM, 7 days post-IR
U1242 cells [10] = experiment: Cell growth, AlamarBlue, U1242; type: cell-based, human; settings: U1242, 3 μM, over a 5 day period
mTOR = mTOR (Homo sapiens, UniProt P42345); experiment: Millipore KinaseProfiler, mTOR; type: biochemical; settings: 1 μM
[11] = test system: CHK2 phosphorylation (T68); experiment: IR-induced CHK2; type: cell-based, human; settings: U1242, 3 μM, 5 Gy, up to 1 h after irradiation
U87 cells [12] = experiment: Migration assay through 8 μm pore membranes, U87; type: cell-based; settings: Homo sapiens, U-87 MG, 6 h, read-out: inhibition of migration
[13] = test system: AKT (S473) phosphorylation; experiment: Insulin-stimulated AKT phosphorylation, normal fibroblasts; type: cell-based, human; settings: NFs
PI3K (p110β/p85α) = PI3K (p110β/p85α) (Homo sapiens, UniProt P42338); experiment: PI3-Kinase HTRF assay; type: biochemical; settings: read-out: PI3K (p110β/p85α) inhibited
p53 phosphorylation = experiment: IR-induced p53 phosphorylation, western blot, U1242 cells; type: cell-based, human; settings: U1242, 3 μM, 5 Gy
γ-H2AX = experiment: IR-induced γ-H2AX, western blot, U1242 cells; type: cell-based, human; settings: U1242, 3 μM, 5 Gy, especially at times ≤15 min
U87 cells [14] = experiment: Invasion through matrigel, U87; type: cell-based; settings: Homo sapiens, U-87 MG, 48 h, read-out: inhibition of invasion through matrigel
U1242 cells [15] = experiment: Scratch; type: cell-based, human
[16] = test system: AKT (S473) phosphorylation; experiment: Insulin-stimulated AKT phosphorylation, A-T fibroblasts; type: cell-based, human; settings: A-T cells, in response to insulin
[17] = test system: panel of 229 protein kinases; experiment: Millipore KinaseProfiler panel; type: biochemical; settings: 1 μM; Table S1
[18] = test system: h-TERT-immortalized A-T fibroblasts; experiment: Radiosurvival, Trypan blue/FACS assay, A-T fibroblasts; type: cell-based, human; settings: 10 μM, 7 days post-IR
U1242 cells [19] = experiment: Invasion through matrigel inserts, U1242; type: cell-based; settings: Homo sapiens, 48 h, read-out: inhibition of invasion
PI3K (p120γ) = PI3K (p120γ) (Homo sapiens, UniProt P48736); experiment: PI3-Kinase HTRF assay; type: biochemical; settings: read-out: PI3K (p120γ) inhibited
Sequence of PI3K (p120γ) (P48736 whole entry): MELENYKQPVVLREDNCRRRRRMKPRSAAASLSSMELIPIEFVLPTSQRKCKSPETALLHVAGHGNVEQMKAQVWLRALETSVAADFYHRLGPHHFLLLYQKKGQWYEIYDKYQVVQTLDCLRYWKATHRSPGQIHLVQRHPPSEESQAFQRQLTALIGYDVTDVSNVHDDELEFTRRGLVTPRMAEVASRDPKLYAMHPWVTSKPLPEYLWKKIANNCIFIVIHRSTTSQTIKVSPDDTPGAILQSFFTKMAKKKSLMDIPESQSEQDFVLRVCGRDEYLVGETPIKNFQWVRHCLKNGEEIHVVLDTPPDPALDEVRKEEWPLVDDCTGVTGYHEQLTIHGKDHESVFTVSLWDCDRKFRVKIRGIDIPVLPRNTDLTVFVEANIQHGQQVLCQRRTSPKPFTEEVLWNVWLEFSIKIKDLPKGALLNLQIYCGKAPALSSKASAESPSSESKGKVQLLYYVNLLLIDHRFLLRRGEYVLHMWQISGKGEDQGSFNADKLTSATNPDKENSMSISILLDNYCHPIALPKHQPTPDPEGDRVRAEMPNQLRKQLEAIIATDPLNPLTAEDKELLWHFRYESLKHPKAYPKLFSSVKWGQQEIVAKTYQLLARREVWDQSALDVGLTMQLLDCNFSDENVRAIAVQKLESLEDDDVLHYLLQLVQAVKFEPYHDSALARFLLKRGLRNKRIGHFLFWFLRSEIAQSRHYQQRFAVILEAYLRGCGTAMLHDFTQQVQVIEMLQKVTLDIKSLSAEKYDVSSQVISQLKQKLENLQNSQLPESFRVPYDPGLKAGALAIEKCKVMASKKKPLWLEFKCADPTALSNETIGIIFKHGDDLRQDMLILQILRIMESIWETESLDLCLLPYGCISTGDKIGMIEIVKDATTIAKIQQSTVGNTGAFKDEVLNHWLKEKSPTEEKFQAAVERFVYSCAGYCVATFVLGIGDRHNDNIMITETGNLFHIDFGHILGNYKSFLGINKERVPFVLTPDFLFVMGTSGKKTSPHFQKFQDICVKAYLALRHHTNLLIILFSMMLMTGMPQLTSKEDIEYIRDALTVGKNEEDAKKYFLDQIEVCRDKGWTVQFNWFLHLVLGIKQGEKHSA

Sequence of PI3K (p110δ/p85α) (O00329 whole entry): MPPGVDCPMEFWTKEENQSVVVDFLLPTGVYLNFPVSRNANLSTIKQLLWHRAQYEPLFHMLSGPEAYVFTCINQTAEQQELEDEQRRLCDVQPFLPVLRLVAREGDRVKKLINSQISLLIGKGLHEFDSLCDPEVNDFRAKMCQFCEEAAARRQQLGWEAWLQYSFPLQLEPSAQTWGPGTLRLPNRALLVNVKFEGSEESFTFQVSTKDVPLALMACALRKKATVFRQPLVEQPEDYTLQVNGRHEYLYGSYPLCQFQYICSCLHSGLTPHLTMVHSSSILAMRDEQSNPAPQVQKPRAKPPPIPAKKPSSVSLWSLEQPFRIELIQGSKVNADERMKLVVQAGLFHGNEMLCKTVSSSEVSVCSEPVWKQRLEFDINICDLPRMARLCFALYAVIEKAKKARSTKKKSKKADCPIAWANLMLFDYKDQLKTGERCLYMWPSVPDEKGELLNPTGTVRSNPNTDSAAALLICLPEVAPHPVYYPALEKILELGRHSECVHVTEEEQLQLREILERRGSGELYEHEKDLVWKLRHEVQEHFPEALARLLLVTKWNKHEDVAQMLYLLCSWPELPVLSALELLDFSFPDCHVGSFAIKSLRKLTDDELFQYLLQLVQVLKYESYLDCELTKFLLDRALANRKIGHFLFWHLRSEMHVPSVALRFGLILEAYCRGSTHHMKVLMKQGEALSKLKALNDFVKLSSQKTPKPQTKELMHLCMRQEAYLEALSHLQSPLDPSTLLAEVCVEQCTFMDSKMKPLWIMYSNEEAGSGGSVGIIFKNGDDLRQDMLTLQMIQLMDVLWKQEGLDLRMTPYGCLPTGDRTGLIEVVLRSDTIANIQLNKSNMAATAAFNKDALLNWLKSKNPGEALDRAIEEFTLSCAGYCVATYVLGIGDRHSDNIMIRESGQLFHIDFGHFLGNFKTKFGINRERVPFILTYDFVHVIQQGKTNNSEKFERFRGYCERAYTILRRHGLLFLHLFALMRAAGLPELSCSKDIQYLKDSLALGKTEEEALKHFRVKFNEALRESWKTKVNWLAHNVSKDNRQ
Sequence of PI3K (p110δ/p85α) (P27986 whole entry partner): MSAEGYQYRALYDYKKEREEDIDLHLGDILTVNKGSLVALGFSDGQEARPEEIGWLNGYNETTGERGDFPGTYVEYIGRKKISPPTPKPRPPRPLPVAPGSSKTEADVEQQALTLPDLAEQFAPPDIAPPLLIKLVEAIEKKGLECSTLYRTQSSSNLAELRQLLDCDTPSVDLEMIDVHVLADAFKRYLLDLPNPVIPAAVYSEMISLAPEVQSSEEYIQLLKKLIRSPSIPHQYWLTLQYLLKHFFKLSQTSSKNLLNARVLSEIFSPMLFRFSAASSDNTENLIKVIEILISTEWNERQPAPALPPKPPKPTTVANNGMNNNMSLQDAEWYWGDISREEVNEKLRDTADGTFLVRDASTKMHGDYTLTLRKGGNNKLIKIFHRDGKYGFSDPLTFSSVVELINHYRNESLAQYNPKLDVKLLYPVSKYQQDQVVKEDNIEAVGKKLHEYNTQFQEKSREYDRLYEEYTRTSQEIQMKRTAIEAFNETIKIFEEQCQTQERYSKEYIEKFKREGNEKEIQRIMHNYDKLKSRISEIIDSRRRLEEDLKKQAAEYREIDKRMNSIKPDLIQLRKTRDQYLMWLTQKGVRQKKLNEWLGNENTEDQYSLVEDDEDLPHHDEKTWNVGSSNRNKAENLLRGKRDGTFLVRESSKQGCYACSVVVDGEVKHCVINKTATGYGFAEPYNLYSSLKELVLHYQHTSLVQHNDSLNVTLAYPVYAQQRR
Sequence of PI3K (p110β/p85α) (P42338 whole entry): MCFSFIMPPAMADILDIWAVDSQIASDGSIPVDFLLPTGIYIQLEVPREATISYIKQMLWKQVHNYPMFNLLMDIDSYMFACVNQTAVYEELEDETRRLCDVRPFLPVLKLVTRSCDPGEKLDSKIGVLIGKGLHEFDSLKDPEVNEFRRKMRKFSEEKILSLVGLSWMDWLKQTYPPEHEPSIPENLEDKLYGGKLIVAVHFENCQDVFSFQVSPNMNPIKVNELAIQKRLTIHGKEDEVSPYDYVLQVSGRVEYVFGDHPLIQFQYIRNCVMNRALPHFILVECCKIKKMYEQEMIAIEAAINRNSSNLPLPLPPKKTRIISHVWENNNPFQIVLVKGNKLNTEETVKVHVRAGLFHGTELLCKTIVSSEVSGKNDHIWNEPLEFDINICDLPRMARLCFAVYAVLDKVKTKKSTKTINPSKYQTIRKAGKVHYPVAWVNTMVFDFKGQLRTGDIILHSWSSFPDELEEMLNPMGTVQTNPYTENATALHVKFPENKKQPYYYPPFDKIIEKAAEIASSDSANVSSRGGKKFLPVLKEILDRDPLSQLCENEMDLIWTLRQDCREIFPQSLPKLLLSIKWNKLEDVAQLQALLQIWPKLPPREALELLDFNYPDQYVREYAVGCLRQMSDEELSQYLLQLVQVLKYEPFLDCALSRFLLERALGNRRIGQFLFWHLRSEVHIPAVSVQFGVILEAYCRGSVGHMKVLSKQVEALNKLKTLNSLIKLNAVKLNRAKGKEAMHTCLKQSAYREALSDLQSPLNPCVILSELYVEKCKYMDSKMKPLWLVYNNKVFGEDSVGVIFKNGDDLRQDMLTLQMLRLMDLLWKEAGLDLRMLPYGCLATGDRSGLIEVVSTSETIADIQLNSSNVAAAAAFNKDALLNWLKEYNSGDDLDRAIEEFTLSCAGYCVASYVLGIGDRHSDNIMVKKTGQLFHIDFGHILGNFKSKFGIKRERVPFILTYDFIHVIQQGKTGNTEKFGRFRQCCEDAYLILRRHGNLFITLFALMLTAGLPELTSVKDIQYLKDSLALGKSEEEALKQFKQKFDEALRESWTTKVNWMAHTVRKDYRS
Sequence of PI3K (p110β/p85α) (P27986 whole entry partner): as the sequence (P27986 whole entry partner) above

In the case of C=C1[C@@H](O)[C@@H]2O[C@]3(CC[C@H](/C=C/[C@@H](C)[C@@H]4CC(C)=C[C@@]5(O[C@H](C[C@@](C)(O)C(=O)O)CC[C@H]5O)O4)O3)CC[C@H]2O[C@@H]1[C@@H](O)C[C@H](C)[C@H]1O[C@@]2(CCCCO2)CC[C@H]1C [OA, okadaic acid, reference compound], the “increase of AKT S473 phosphorylation compared to untreated control” value ([1]; U87, OA by itself) is reported as greater than 2 fold and the “reduction of the effect of KU-60019 on S473 phosphorylation” value ([1]; U87, ≥30 nM OA with KU-60019 3 μM, 1 h) is reported as greater than 50%.
In the case of O=C(NOCC1CC1)c1ccc(F)c(F)c1Nc1ccc(I)cc1Cl [PD184352, reference compound], the effect on radiosurvival (U1242 cells [2]; U1242, alone (Fig. S5)) is reported as “slightly radioprotective” and the “effect on IR-induced killing” value (U87 cells [3]) is reported as “small but significant effect”.
For O=c1cc(-c2cccc3c2Sc2ccccc2S3)oc(N2CCOCC2)c1 [KU-55933, reference compound], the “specificity using a panel of 60 protein kinases” value [4] is given as “highly specific for the ATM kinase”, the “effect on phosphorylation of (S9) GSK3β” value [5] is given as “reduced” and the γ-H2AX levels (γ-H2AX (S139); U87, 10 μM, 1 h after irradiation) is given as “only partly reduced”. The “effect on phosphorylation of (S136) BAD” value [6] was “reduced”, the “inhibition of IR-induced p53 (S15) phosphorylation” value (“inhibition of IR-induced p53” below) ([7]; U87, 3 μM, 10 Gy) was “not at 3 μM” and the “inhibition of IR-induced p53” value ([7]; U87, 10 μM, 10 Gy) was “completely inhibited”. For the same compound, the “effect on radiation-induced AKT T308 phosphorylation” value (AKT T308 phosphorylation) was “attenuated”.
In the case of C[C@@H]1CN(CC(=O)Nc2ccc3c(c2)Cc2cccc(-c4cc(=O)cc(N5CCOCC5)o4)c2S3)C[C@H](C)O1 [KU-60019, 2-((2R, 6S)-2,6-Dimethyl-morpholin-4-yl)-N-[5-(6-morpholin-4-yl-4-oxo-4H-pyran-2-yl)-9H-thioxanthen-2-yl]-acetamide], the “effect on basal and radiation-induced AKT S473 phosphorylation” value [8] is reported as “almost completely abrogated”, the inhibition at 1 µM (PI3K (p110δ/p85α)) is reported as 27% and the radiosensitization [9] is reported as “radiosensitized”. For the same compound, the “effect on phosphorylation of (S9) GSK3β” value [5] was “reduced”, the suppression of growth (U1242 cells [10]) was ~ 40% and the mTOR inhibition (mTOR) was “not inhibited”. The “inhibition of radiation-induced CHK2 phosphorylation (T68)” value [11] was “completely inhibited”, the inhibition at 10 µM (U87 cells [12]) was no less than 70% and the radiosensitization (U1242 cells [2]; U1242, 3 μM, 4 days post-IR, level between that of U87 cells treated with 1 and 10 μM) was “radiosensitized”. For the same compound, the “reduction of AKT phosphorylation” value [13] was ~ 45%, the inhibition at 1 µM (PI3K (p110β/p85α)) was 9% and the “inhibition of p53 phosphorylation” value (p53 phosphorylation) was “completely inhibited”. The “inhibition of γ-H2AX” value (γ-H2AX) was “partially inhibited”, the γ-H2AX levels (γ-H2AX (S139); U87, 3 μM, 15 min) was “reduced significantly” and the “effect on H2AX phosphorylation” value (γ-H2AX (S139); U87, 10 Gy, 1 h after irradiation) was “little to no effect”. The inhibition at 3 µM (U87 cells [14]) was roughly 60%, the “effect on phosphorylation of (S136) BAD” value [6] was “reduced” and the “inhibition of IR-induced p53” value ([7]; U87, 1 μM, 10 Gy) was “partial inhibited”. For the same compound, the “p53 (S15) phosphorylation blocked” value ([7]; U87, 1 μM, after IR) was greater than 70%, the “inhibition of p53 phosphorylation” value ([7]; U87, 3 μM, 10 Gy, 15 min post-IR) was “completely inhibited” and the “inhibition of IR-induced p53” value ([7]; U87, 3 μM, 10 Gy) was “completely inhibited”. The inhibition at 3 µM (U1242 cells [15]; Homo sapiens, read-out: inhibition of migration (scratch assay)) was no less than 50%, the “rate of gap closure slower than untreated” value (U1242 cells [15]; U1242, 3 μM, at 10 h) was 50% and the “effect on S473 phosphorylation” value [16] was “did not affect”. The “effect on radiation-induced increase in phospho-AKT (S473)” value ([1]; U87, 3 μM, 5 Gy) was “almost completely blocked”, the “earliest time of effect on S473 dephosphorylation after addition of drug” value ([1]; U87, 3 μM, drug alone) was 5 min and the “reduction in AKT phosphorylation” value ([1]; U87, insulin-stimulated) was ~ 50%. The “reduction of basal AKT S473 phosphorylation” value ([1]; pooled data from several independent experiments (Fig. S1A)) was 70%, the “non-specific target effects against a panel of 229 protein kinases” value [17] was “little to no non-specific target effects” and the radiosensitization [18] was “not radiosensitized”. The inhibition at 3 µM (U1242 cells [19]) was roughly 60% and the inhibition at 1 µM (PI3K (p120γ)) was 3%.
